Experimental data reported in ChEMBL document CHEMBL6178019, “Discovery of CYP1A1 Inhibitors for Host-Directed Therapy against Sepsis” (J Med Chem, 2025).

Tests used:
Assay type in all cases: cell-based
CYP1A1 [1] = molecular target: T1, CYP1A1 (Homo sapiens, UniProt P04798); assay: Inhibition of CYP1A1 in human Caco-2 cells at 5 uM incubated for 12 hrs by EROD assay relative to control
T1 sequence (P04798 whole entry): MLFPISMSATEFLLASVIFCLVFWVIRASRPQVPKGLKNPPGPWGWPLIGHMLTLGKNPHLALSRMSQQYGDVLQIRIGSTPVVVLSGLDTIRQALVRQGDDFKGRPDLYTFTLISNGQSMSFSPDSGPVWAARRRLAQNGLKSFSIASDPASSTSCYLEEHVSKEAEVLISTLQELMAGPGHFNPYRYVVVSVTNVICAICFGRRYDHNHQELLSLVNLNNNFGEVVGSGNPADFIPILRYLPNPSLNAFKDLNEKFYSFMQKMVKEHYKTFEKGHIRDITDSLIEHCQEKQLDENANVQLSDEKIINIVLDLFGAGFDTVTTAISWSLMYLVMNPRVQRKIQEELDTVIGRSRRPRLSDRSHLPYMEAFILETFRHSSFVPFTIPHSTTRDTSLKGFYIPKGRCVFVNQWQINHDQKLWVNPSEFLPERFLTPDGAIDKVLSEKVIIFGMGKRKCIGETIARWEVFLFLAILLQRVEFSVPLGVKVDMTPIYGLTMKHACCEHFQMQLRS

Cytochrome P450 1A1 [2] = molecular target: T2, Cytochrome P450 1A1 (Homo sapiens, UniProt P04798); assay: Inhibition of CYP1A1 in human Caco-2 cells incubated for 12 hrs by EROD assay; conditions: caco-2, 12 h, at 50 to 5000 nM, dose 50-5000 nM
T2 sequence (P04798 whole entry): T1 sequence (P04798 whole entry)

CYP1A1 [3] = molecular target: T1, CYP1A1; assay: Inhibition of CYP1A1 in human Caco-2 cells assessed as relative activity by measuring fold change at 500 nM incubated for 12 hrs by EROD assay relative to control; conditions: read-out: FC
Cytochrome P450 1A1 [4] = molecular target: T2, Cytochrome P450 1A1; assay: Inhibition of CYP1A1 in human Caco-2 cells assessed as relative activity by measuring fold change at 5.0 uM incubated for 12 hrs by EROD assay relative to control; conditions: caco-2, 12 h
CYP1A1 [5] = molecular target: T3, CYP1A1 (Mus musculus, UniProt P00184); assay: Inhibition of CYP1A1 in mouse RAW264.7 cells assessed as relative activity by measuring fold change at 500 nM incubated for 12 hrs by EROD assay relative to control; conditions: read-out: FC
T3 sequence (P00184 whole entry): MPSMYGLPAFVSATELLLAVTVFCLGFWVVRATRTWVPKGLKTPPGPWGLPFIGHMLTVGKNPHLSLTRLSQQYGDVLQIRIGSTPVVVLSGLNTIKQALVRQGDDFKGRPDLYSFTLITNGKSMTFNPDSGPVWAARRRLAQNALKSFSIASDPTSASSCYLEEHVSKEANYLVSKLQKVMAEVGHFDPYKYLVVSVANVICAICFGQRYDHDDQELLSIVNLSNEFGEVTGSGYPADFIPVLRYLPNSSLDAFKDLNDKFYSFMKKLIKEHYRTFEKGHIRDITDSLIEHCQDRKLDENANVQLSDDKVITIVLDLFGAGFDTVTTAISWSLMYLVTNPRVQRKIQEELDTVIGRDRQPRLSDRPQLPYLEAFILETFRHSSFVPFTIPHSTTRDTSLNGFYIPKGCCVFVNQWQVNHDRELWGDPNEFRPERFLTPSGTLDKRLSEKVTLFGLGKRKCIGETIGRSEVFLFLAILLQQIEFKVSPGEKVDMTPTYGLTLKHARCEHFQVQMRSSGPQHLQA

CYP1A1 [6] = molecular target: T3, CYP1A1; assay: Inhibition of CYP1A1 in mouse RAW264.7 cells assessed as relative activity by measuring fold change at 5 uM incubated for 12 hrs by EROD assay relative to control; conditions: read-out: FC
CYP1A1 [7] = molecular target: T3, CYP1A1; assay: Inhibition of CYP1A1 in mouse RAW264.7 cells at 5 uM incubated for 12 hrs by EROD assay relative to control

Compound | inhibition at 12 h, 5 µM (CYP1A1 [1]) [%] | inhibition (INH) (Cytochrome P450 1A1 [2]) | fold induction at 12 h, 0.5 µM (CYP1A1 [3]) | fold change (FC) (Cytochrome P450 1A1 [4]) | fold induction at 12 h, 0.5 µM (CYP1A1 [5]) | fold induction at 12 h, 5 µM (CYP1A1 [6]) | inhibition at 12 h, 5 µM (CYP1A1 [7]) [%]
Cn1c(=O)n(C)c2cc(C(=O)/C=C/c3ccccc3F)ccc21 | 100 | Dose-dependent-effect | 0.32 | 0.04 | 1.17 | 1.02 | –
Cn1c(=O)n(C)c2cc(C(=O)/C=C/c3ccsc3)ccc21 | ~80 | – | 0.43 | 0.19 | 0.58 | 0.32 | ~80
C#Cc1ccc(/C=C/C(=O)c2ccccc2)cc1 | – | – | 0.6 | 0.3 | 0.52 | 0.18 | –
Cn1c(=O)n(C)c2cc(C(=O)/C=C/c3coc4ccccc34)ccc21 | – | – | 1.29 | 0.9 | 0.5 | 0.22 | –
Cn1c(=O)n(C)c2cc(C(=O)/C=C/c3cccs3)ccc21 | ~80 | – | 0.45 | 0.18 | 0.38 | 0.23 | ~80
CC(=O)n1cc(/C=C/C(=O)c2ccc3c(c2)n(C)c(=O)n3C)c2ccccc21 | – | – | 0.93 | 0.77 | 0.92 | 0.17 | –
CC(C)=CCC/C(C)=C/COc1c2ccoc2cc2oc(=O)ccc12 [BERGAMOTTIN] | – | – | 0.19 | 0.05 | 0.44 | 0.18 | –
CN(C)c1ccc(/C=C/C(=O)c2ccc3c(c2)n(C)c(=O)n3C)cc1 | – | – | 0.52 | 0.24 | 1.05 | 0.54 | –
C#Cc1ccc(/C=C/C(=O)c2ccc(NC(C)=O)cc2)cc1 | – | – | 0.76 | 0.43 | 1.12 | 0.57 | –
Cn1c(=O)n(C)c2cc(C(=O)/C=C/c3ccc(-c4ccccc4)cc3)ccc21 | – | – | 0.75 | 0.15 | 0.96 | 0.81 | –
Cn1c(=O)n(C)c2cc(C(=O)/C=C/c3ccc(F)cc3F)ccc21 | – | – | 0.68 | 0.42 | 0.74 | 0.56 | –
Cn1c(=O)n(C)c2cc(C(=O)/C=C/c3c4ccccc4cc4ccccc34)ccc21 | – | – | 0.8 | 0.71 | 1.15 | 1.06 | –
Cn1c(=O)n(C)c2cc(C(=O)/C=C/c3ccc(I)o3)ccc21 | – | – | 0.5 | 0.18 | 0.75 | 0.55 | –
Cn1c(=O)n(C)c2cc(C(=O)/C=C/c3ccco3)ccc21 | – | – | 0.87 | 0.47 | 0.5 | 0.31 | –
Cn1c(=O)n(C)c2cc(C(=O)/C=C/c3c(F)c(F)c(F)c(F)c3F)ccc21 | – | – | 0.8 | 0.34 | 0.69 | 0.43 | –
Cn1c(=O)n(C)c2cc(C(=O)/C=C/c3ccc(F)cc3Cl)ccc21 | – | – | 0.84 | 0.38 | 0.67 | 0.56 | –
Cn1c(=O)n(C)c2cc(C(=O)/C=C/c3ccc([N+](=O)[O-])cc3)ccc21 | – | – | 0.97 | 0.37 | 0.79 | 0.64 | –
Cn1c(=O)n(C)c2cc(C(=O)/C=C/c3cc4ccccc4s3)ccc21 | – | – | 0.81 | 0.56 | 1.12 | 0.77 | –
Cn1c(=O)n(C)c2cc(C(=O)/C=C/c3cccn3C(=O)OC(C)(C)C)ccc21 | – | – | 0.9 | 0.67 | 0.69 | 0.55 | –
Cn1c(=O)n(C)c2cc(C(=O)/C=C/c3cc(F)cc(F)c3)ccc21 | – | – | 0.89 | 0.74 | 0.76 | 0.89 | –
Cn1c(=O)n(C)c2cc(C(=O)/C=C/C3CC3)ccc21 | – | – | 0.71 | 0.12 | 0.8 | 0.38 | –
Cn1c(=O)n(C)c2cc(C(=O)/C=C/c3cc4ccccc4o3)ccc21 | – | – | 0.66 | 0.31 | 0.82 | 0.52 | –
